Our source for the Dmax and DC50 values is US12448399B2, “Cereblon-based KRAS degrading PROTACs and uses related thereto” (Arvinas Operations, Inc., priority 2023, dated 2025).

The target of this assay is T1, KRas-G12D (Homo sapiens, UniProt P01116, G12D).
T1 construct: insert the HiBiT tag onto the N-terminus of one or more of the endogenous KRas alleles; host or cells: AsPC-1 HiBiT-KRasG12D knock-in clone (one tagged allele, two untagged KRasG12D alleles)
As to the kind of experiment: HiBiT Degradation Assay (G12D), AsPC-1 HiBiT-KRasG12D cells, 24 hr. Type of assay: cell-based. Conditions: for Dmax: ASPC1, AsPC-1 cells, maximum degradation observed; for DC50: AsPC-1 cells. The gist of the method:
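Degradation was read after 24 hr compound exposure (0.5% DMSO, 37° C) by Nano-Glo HiBiT lytic luminescence in AsPC-1 cells carrying a HiBiT tag on one of three KRasG12D alleles. Signal relative to DMSO gave DC50 and Dmax by 4-parameter fit; alamar blue fluorescence monitored cytotoxicity.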

Molecules are shown by their SMILES.

T1 sequence (P01116 1-188 isoform P01116-2 G12D): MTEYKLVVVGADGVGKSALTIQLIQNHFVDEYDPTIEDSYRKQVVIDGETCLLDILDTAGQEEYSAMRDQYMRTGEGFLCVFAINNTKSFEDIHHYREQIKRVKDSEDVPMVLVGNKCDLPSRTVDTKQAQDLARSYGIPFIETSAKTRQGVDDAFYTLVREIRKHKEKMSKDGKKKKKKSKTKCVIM

What is called Dmax is the greatest extent of degradation seen. A low value points to shallow degradation. By DC50 is commonly meant the concentration at which degradation of the target reaches its halfway point. `C#Cc1c(F)ccc2cc(O)cc(-c3ncc4c(N5CC6CCC(C5)N6)nc(OC[C@@H]5C[C@@H](OC6CCN(CC7CCN(c8ccc9c(c8)CN(C8CCC(=O)NC8=O)C9=O)CC7)CC6)CN5C)nc4c3F)c12` (stereo partly drawn) [Compound 116] returned a Dmax of over 70% and a DC50 of under 5.1 µM.

Turning to `C#Cc1c(F)ccc2cc(O)cc(-c3ncc4c(N5CC6CCC(C5)N6)nc(OC[C@@H]5CC[C@@H](COC(=O)N6CCN(c7cccc8c7CN(C7CCC(=O)NC7=O)C8=O)CC6)N5C)nc4c3F)c12` (stereo partly drawn) [Compound 117, [(2S,5S)-5-{[(4-{3,8-diazabicyclo[3.2.1]octan-3-yl}-7-(8-ethynyl-7-fluoro-3-hydroxynaphthalen-1-yl)-8-fluoropyrido[4,3-d]pyrimidin-2-yl)oxy]methyl}-1-methylpyrrolidin-2-yl]methyl 4-[2-(2,6-dioxopiperidin-3-yl)-1-oxo-2,3-dihydro-1H-isoindol-4-yl]piperazine-1-carboxylate], the DC50 is 0.25 to 1 µM.

Turning to `CCc1cccc2cc(O)cc(-c3ncc4c(N5CC6CCC(C5)N6)nc(OC[C@@H]5C[C@@H](OC6CCN(c7cccc8c7CN(C7CCC(=O)NC7=O)C8=O)CC6)CN5C)nc4c3F)c12` (stereo partly drawn) [Compound 118, 3-[4-(4-{[(3R,5S)-5-{[(4-{3,8-diazabicyclo[3.2.1]octan-3-yl}-7-(8-ethyl-3-hydroxynaphthalen-1-yl)-8-fluoropyrido[4,3-d]pyrimidin-2-yl)oxy]methyl}-1-methylpyrrolidin-3-yl]oxy}piperidin-1-yl)-1-oxo-2,3-dihydro-1H-isoindol-2-yl]piperidine-2,6-dione], the DC50 was over 1 µM.

The compound `C#Cc1c(F)ccc2cc(O)cc(-c3ncc4c(N5CC6CCC(C5)N6)nc(OCCN5CCC6(CC5)CN(CC5(F)CCN(c7ccc8c(c7F)CN(C7CCC(=O)NC7=O)C8=O)CC5)C6)nc4c3F)c12` (stereo not drawn) [Compound 119, 3-(5-{4-[(7-{2-[(4-{3,8-diazabicyclo[3.2.1]octan-3-yl}-7-(8-ethynyl-7-fluoro-3-hydroxynaphthalen-1-yl)-8-fluoropyrido[4,3-d]pyrimidin-2-yl)oxy]ethyl}-2,7-diazaspiro[3.5]nonan-2-yl)methyl]-4-fluoropiperidin-1-yl}-4-fluoro-1-oxo-2,3-dihydro-1H-isoindol-2-yl)piperidine-2,6-dione] showed a DC50 of under 5.1 µM.

With `C#Cc1c(F)ccc2cc(O)cc(-c3ncc4c(N5CC6CCC(C5)N6)nc(OCCN5CCC6(CC5)CCN(CC5(F)CCN(c7ccc8c(c7F)CN(C7CCC(=O)NC7=O)C8=O)CC5)CC6)nc4c3F)c12` (stereo not drawn) [Compound 120, 3-(5-{4-[(9-{2-[(4-{3,8-diazabicyclo[3.2.1]octan-3-yl}-7-(8-ethynyl-7-fluoro-3-hydroxynaphthalen-1-yl)-8-fluoropyrido[4,3-d]pyrimidin-2-yl)oxy]ethyl}-3,9-diazaspiro[5.5]undecan-3-yl)methyl]-4-fluoropiperidin-1-yl}-4-fluoro-1-oxo-2,3-dihydro-1H-isoindol-2-yl)piperidine-2,6-dione], the Dmax is over 70% and the DC50 is under 5.1 µM.

Turning to `C#Cc1c(F)ccc2cc(O)cc(-c3ncc4c(N5CC6CCC(C5)N6)nc(OCCN5CCC6(CC5)CCN(CC5CCN(c7ccc8c(c7F)CN(C7CCC(=O)NC7=O)C8=O)CC5)CC6)nc4c3F)c12` (stereo not drawn) [Compound 121, 3-[5-[4-[[9-[2-[4-(3,8-diazabicyclo[3.2.1]octan-3-yl)-7-(8-ethynyl-7-fluoro-3-hydroxy-1-naphthyl)-8-fluoro-pyrido[4,3-d]pyrimidin-2-yl]oxyethyl]-3,9-diazaspiro[5.5]undecan-3-yl]methyl]-1-piperidyl]-4-fluoro-1-oxo-isoindolin-2-yl]piperidine-2,6-dione], the Dmax was over 70% and the DC50 is under 5.1 µM.

Consider `C#Cc1c(F)ccc2cc(O)cc(-c3ncc4c(N5CC6CCC(C5)N6)nc(OC[C@@H]5C[C@@H](OC6CCN(CC7CCN(c8ccc9c(c8F)CN(C8CCC(=O)NC8=O)C9=O)CC7)CC6)CN5C)nc4c3F)c12` (stereo partly drawn) [Compound 122, 3-(5-{4-[(4-{[(3R,5S)-5-{[(4-{3,8-diazabicyclo[3.2.1]octan-3-yl}-7-(8-ethynyl-7-fluoro-3-hydroxynaphthalen-1-yl)-8-fluoropyrido[4,3-d]pyrimidin-2-yl)oxy]methyl}-1-methylpyrrolidin-3-yl]oxy}piperidin-1-yl)methyl]piperidin-1-yl}-4-fluoro-1-oxo-2,3-dihydro-1H-isoindol-2-yl)piperidine-2,6-dione], for which the Dmax was over 70% and the DC50 is under 5.1 µM.

Regarding `C#Cc1c(F)ccc2cc(O)cc(-c3ncc4c(N5CC6CCC(C5)N6)nc(OCCN5CCC(CC6CCN(CC7CCN(c8ccc(F)c9c8CN(C8CCC(=O)NC8=O)C9=O)CC7)CC6)CC5)nc4c3F)c12` (stereo not drawn) [Compound 123], the Dmax was over 70% and the DC50 is under 5.1 µM.

Turning to `C#Cc1c(F)ccc2cc(O)cc(-c3ncc4c(N5CC6CCC(C5)N6)nc(OCCN5CCC(F)(CC6CCN(CC7CCN(c8cccc9c8CN(C8CCC(=O)NC8=O)C9=O)CC7)CC6)CC5)nc4c3F)c12` (stereo not drawn) [Compound 124, 3-{4-[4-({4-[(1-{2-[(4-{3,8-diazabicyclo[3.2.1]octan-3-yl}-7-(8-ethynyl-7-fluoro-3-hydroxynaphthalen-1-yl)-8-fluoropyrido[4,3-d]pyrimidin-2-yl)oxy]ethyl}-4-fluoropiperidin-4-yl)methyl]piperidin-1-yl}methyl)piperidin-1-yl]-1-oxo-2,3-dihydro-1H-isoindol-2-yl}piperidine-2,6-dione], the Dmax was over 70% and the DC50 was under 5.1 µM.

`C#Cc1c(F)ccc2cc(O)cc(-c3ncc4c(N5CC6CCC(C5)N6)nc(OCCN5CCC(CC6CCN(CC7(F)CCN(c8cccc9c8CN(C8CCC(=O)NC8=O)C9=O)CC7)CC6)CC5)nc4c3F)c12` (stereo not drawn) [Compound 125, 3-{4-[4-({4-[(1-{2-[(4-{3,8-diazabicyclo[3.2.1]octan-3-yl}-7-(8-ethynyl-7-fluoro-3-hydroxynaphthalen-1-yl)-8-fluoropyrido[4,3-d]pyrimidin-2-yl)oxy]ethyl}piperidin-4-yl)methyl]piperidin-1-yl}methyl)-4-fluoropiperidin-1-yl]-1-oxo-2,3-dihydro-1H-isoindol-2-yl}piperidine-2,6-dione] came in with a DC50 of under 5.1 µM.

On to `C#Cc1c(F)ccc2cc(O)cc(-c3ncc4c(N5CC6CCC(C5)N6)nc(OCCN5CCC(CN6CCC(CC7CCN(c8cccc9c8CN(C8CCC(=O)NC8=O)C9=O)CC7)CC6)CC5)nc4c3F)c12` (stereo not drawn) [Compound 126, 3-{4-[4-({1-[(1-{2-[(4-{3,8-diazabicyclo[3.2.1]octan-3-yl}-7-(8-ethynyl-7-fluoro-3-hydroxynaphthalen-1-yl)-8-fluoropyrido[4,3-d]pyrimidin-2-yl)oxy]ethyl}piperidin-4-yl)methyl]piperidin-4-yl}methyl)piperidin-1-yl]-1-oxo-2,3-dihydro-1H-isoindol-2-yl}piperidine-2,6-dione], for which the Dmax is over 70% and the DC50 was under 5.1 µM.

`C#Cc1c(F)ccc2cc(O)cc(-c3nc(N4CC5CCC(C4)N5)c4cnc(OCCN5CCC6(CC5)CN(CC5CCN(c7ccc8c(c7F)CN(C7CCC(=O)NC7=O)C8=O)CC5)C6)nc4c3F)c12` (stereo not drawn) [Compound 127] returned a DC50 of under 5.1 µM.

As to `C#Cc1c(F)ccc2cc(O)cc(-c3ncc4c(N5CC6CCC(C5)N6)nc(OCCN5CCC(CCC6CCN(c7cccc8c7CN(C7CCC(=O)NC7=O)C8=O)CC6)CC5)nc4c3F)c12` (stereo not drawn) [Compound 128, 3-(4-{4-[2-(1-{2-[(4-{3,8-diazabicyclo[3.2.1]octan-3-yl}-7-(8-ethynyl-7-fluoro-3-hydroxynaphthalen-1-yl)-8-fluoropyrido[4,3-d]pyrimidin-2-yl)oxy]ethyl}piperidin-4-yl)ethyl]piperidin-1-yl}-1-oxo-2,3-dihydro-1H-isoindol-2-yl)piperidine-2,6-dione], the greatest degradation seen (Dmax) is over 70% and the DC50 lay in the range of 0.1 to 5.25 µM.

`C#Cc1c(F)ccc2cc(O)cc(-c3ncc4c(N5CC6CCC(C5)N6)nc(OCCN5CCC(CC6CCN(c7cccc8c7n(C)c(=O)n8C7CCC(=O)NC7=O)CC6)CC5)nc4c3F)c12` (stereo not drawn) [Compound 129, 3-(4-{4-[(1-{2-[(4-{3,8-diazabicyclo[3.2.1]octan-3-yl}-7-(8-ethynyl-7-fluoro-3-hydroxynaphthalen-1-yl)-8-fluoropyrido[4,3-d]pyrimidin-2-yl)oxy]ethyl}piperidin-4-yl)methyl]piperidin-1-yl}-3-methyl-2-oxo-2,3-dihydro-1H-1,3-benzodiazol-1-yl)piperidine-2,6-dione]: the Dmax is over 70% and the DC50 is under 5.1 µM.

`C#Cc1c(F)ccc2cc(O)cc(-c3ncc4c(N5CC6CCC(C5)N6)nc(OCCN5CCC(CC6CCN(CC7CCN(c8cc(F)cc9c8CN(C8CCC(=O)NC8=O)C9=O)CC7)CC6)CC5)nc4c3F)c12` (stereo not drawn) [Compound 130, 3-{4-[4-({4-[(1-{2-[(4-{3,8-diazabicyclo[3.2.1]octan-3-yl}-7-(8-ethynyl-7-fluoro-3-hydroxynaphthalen-1-yl)-8-fluoropyrido[4,3-d]pyrimidin-2-yl)oxy]ethyl}piperidin-4-yl)methyl]piperidin-1-yl}methyl)piperidin-1-yl]-6-fluoro-1-oxo-2,3-dihydro-1H-isoindol-2-yl}piperidine-2,6-dione] registered a Dmax of over 70% and a DC50 of under 5.1 µM.

`C#Cc1c(F)ccc2cc(O)cc(-c3ncc4c(N5CC6CCC(C5)N6)nc(OCCN5CCC(CC6(F)CCN(CC7CCN(c8cccc9c8CN(C8CCC(=O)NC8=O)C9=O)CC7)CC6)CC5)nc4c3F)c12` (stereo not drawn) [Compound 131, 3-{4-[4-({4-[(1-{2-[(4-{3,8-diazabicyclo[3.2.1]octan-3-yl}-7-(8-ethynyl-7-fluoro-3-hydroxynaphthalen-1-yl)-8-fluoropyrido[4,3-d]pyrimidin-2-yl)oxy]ethyl}piperidin-4-yl)methyl]-4-fluoropiperidin-1-yl}methyl)piperidin-1-yl]-1-oxo-2,3-dihydro-1H-isoindol-2-yl}piperidine-2,6-dione] registered a Dmax of over 70% and a DC50 of under 5.1 µM.
